In EP1077967B1, “BIPHENYL OXO-ACETIC ACIDS USEFUL IN THE TREATMENT OF INSULIN RESISTANCE AND HYPERGLYCEMIA” (Wyeth, priority 1998, dated 1999) one finds IC50 and inhibition data, which are given here for 34 molecules.

Where a name gives a salt, the structure may show the parent alone.

The target of the first experiment is T1, Human recombinant PTP1B (Homo sapiens, UniProt P18031).
T1 construct: made in house
T1 sequence (P18031 1-435): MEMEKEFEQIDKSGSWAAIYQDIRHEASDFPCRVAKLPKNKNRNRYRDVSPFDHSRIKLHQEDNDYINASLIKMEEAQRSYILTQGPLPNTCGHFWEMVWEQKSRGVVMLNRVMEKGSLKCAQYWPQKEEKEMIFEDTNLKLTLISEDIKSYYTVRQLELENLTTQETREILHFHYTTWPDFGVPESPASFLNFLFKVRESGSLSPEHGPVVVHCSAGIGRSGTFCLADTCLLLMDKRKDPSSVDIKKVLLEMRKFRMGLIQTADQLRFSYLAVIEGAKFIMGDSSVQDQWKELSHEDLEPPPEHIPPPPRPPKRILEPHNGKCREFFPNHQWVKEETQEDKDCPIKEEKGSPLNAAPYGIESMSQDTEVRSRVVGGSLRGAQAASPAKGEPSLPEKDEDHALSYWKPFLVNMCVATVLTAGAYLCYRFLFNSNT
As to the kind of experiment: Inhibition of tri-phosphorylated insulin receptor dodecaphosphopeptide dephosphorylation by hPTP1B (malachite green).
Details: not given
It counts as biochemical.
As usually defined, the IC50 is the point on the concentration scale where inhibition reaches its midpoint. Turning to `O=C(c1ccccc1)c1oc2ccccc2c1-c1ccc(-c2ccc(O[C@H](Cc3ccccc3)C(=O)O)c([N+](=O)[O-])c2)cc1` [Example 66, (2R)-2-[4'-(2-Benzoyl-benzofuarn-3-yl)-3-nitro-biphenyl-4-yloxy]-3-phenyl-propionic acid], the IC50 was determined as 788 nM.

Consider `O=C(O)[C@@H](Cc1ccccc1)Oc1ccc(-c2ccc(-c3c(Cc4ccccc4)oc4ccccc34)cc2)cc1[N+](=O)[O-]` [Example 68, (2R)-2-[4'-(2-Benzyl-benzofuarn-3-yl)-3-nitro-biphenyl-4-yloxy]-3-phenyl-propionic acid], for which the IC50 was found to be 231 nM.

Staying with this experiment, now noted: compound at 2.5 uM; read-out: change of PTP1B activity (percent of phosphatase control).
As for `COC(=O)[C@H](Cc1ccccc1)Oc1ccc(-c2ccc(-c3c(Cc4ccccc4)oc4ccccc34)cc2)cc1` [Example 23, (2S)-2-[4'-(2-Benzyl-benzofuran-3-yl)-biphenyl-4-yloxy]-3-phenyl-propionic acid methyl ester], the inhibition at 2.5 µM stood at 36%.

The experiment is the same for the next values; noted with them: recombinant PTP1B, dodecaphosphopeptide substrate.
With `O=C(O)C(Cc1ccccc1)Oc1ccc(-c2ccc(-c3c(Cc4nccs4)sc4ccccc34)cc2)cc1` (stereo not shown) [Example 30, 3-Phenyl-2-[4'-(2-thiazole-2-ylmethyl-benzo[b]thiophene-3-yl)-biphenyl-4-yloxy]-propionic acid], the IC50 was 1160 nM. On to `O=C(O)[C@H](Cc1ccccc1)Oc1ccc(-c2ccc(-c3c(Cc4ccccc4)oc4cccnc34)cc2)cc1` [Example 31, (2S)-2-[4'-(2-Benzyl-furo[2,3]pyridin-3-yl)-biphenyl-4-yloxy]-3-phenyl-propionic acid], for which the IC50 is 590 nM.

Turning to `O=C(O)[C@@H](Cc1ccccc1)Oc1ccc(-c2ccc(-c3c(Cc4ccccn4)sc4ccccc34)cc2)cc1` [Example 32, (2R)-3-phenyl-2-[4'-(2-pyridin-2-ylmethyl-benzo[b]thiophene-3-yl)-biphenyl-4-yloxy]-propionic acid sodium salt], the IC50 turned out to be 1510 nM.

`O=C(O)[C@@H](Cc1ccccc1)Oc1ccc(-c2ccc(-c3c(Cc4ccccn4)sc4ccccc34)cc2)cc1` [Example 33, (2R)-3-phenyl-2-[4'-(2-pyridin-2-ylmethyl-benzo[b]thiophene-3-yl)-biphenyl-4-yloxy]-propionic acid]: the IC50 was 1550 nM.

For the molecule `Oc1ccc(-c2ccc(-c3c(Cc4ccccc4)sc4ccccc34)cc2)cc1Br` [Example 34, 4'-(2-Benzyl-benzo[b]thiophen-3-yl)-3-bromo-biphenyl-4-ol], the IC50 came out at 1070 nM. Same read-out and setting: with `Oc1c(Br)cc(-c2ccc(-c3c(Cc4ccccc4)sc4ccccc34)cc2)cc1Br` [Example 35, 4'-(2-Benzyl-benzo[b]thiophen-3-yl)-3,5-dibromo-biphenyl-4-ol] the figure was 454 nM; with `O=C(O)COc1c(Br)cc(-c2ccc(-c3c(Cc4ccccc4)sc4ccccc34)cc2)cc1Br` [Example 39, [4'-(2-Benzyl-benzo[b]thiophene-3-yl)-3,5-dibromo-biphenyl-4-yloxy]acetic acid], 105 nM; with `O=C(O)COc1ccc(-c2ccc(-c3c(Cc4ccccc4)sc4ccccc34)cc2)cc1Br` [Example 40, [4'-(2-Benzyl-benzo[b]thiophene-3-yl)-3-bromo-biphenyl-4-yloxy]-acetic acid], 362 nM.

As for `O=C(O)[C@H](CCc1ccccc1)Oc1c(Br)cc(-c2ccc(-c3c(Cc4ccccc4)sc4ccccc34)cc2)cc1Br` [Example 41, (2S)-2-[4'-(2-Benzyl-benzo[b]-thiophen-3-yl)-3,5-dibromo-biphenyl-4-yloxy]-4-phenyl-butyric acid], the IC50 is 290 nM.

In the case of `O=C(O)[C@@H](CCN1C(=O)c2ccccc2C1=O)Oc1c(Br)cc(-c2ccc(-c3c(Cc4ccccc4)sc4ccccc34)cc2)cc1Br` [Example 43, (2R)-2-[4'-(2-Benzyl-benzo[b]-thiophen-3-yl)-3,5-dibromo-biphenyl-4-yloxy]-4-(1,3-dioxo-1,3-dihydro-isoindol-2-yl)-butyric acid], the IC50 came to 44 nM. Regarding `COC(=O)[C@@H](CCNC(=O)c1ccccc1C(=O)O)Oc1c(Br)cc(-c2ccc(-c3c(Cc4ccccc4)sc4ccccc34)cc2)cc1Br` [Example 44, N-{(3R)-3-[4'-(2-benzyl-benzo[b]thiophen-3-yl)-3,5-dibromo-biphenyl-4-yloxy]-3-methoxycarbonyl-propyl]-phthalamic acid], the IC50 is 54 nM. As to `O=C(O)c1ccccc1C(=O)NCC[C@@H](Oc1c(Br)cc(-c2ccc(-c3c(Cc4ccccc4)sc4ccccc34)cc2)cc1Br)C(=O)O` [Example 45, N-{(3R)-3-[4'-(2-benzyl-benzo[b]thiophen-3-yl)-3,5-dibromo-biphenyl-4-yloxy]-3-carboxy-propyl]-phthalamic acid], the IC50 amounted to 181 nM. As for `O=C(O)C(Cc1ccccc1)Oc1ccc(-c2ccc(-c3c(Cc4ccccc4)sc4ccccc34)cc2)cc1-c1ccc(Cl)cc1` (stereo not shown) [Example 46, (2R')-2-[4-(2-benzyl-benzo[b]thiophene-3-yl)-4"-chloro-[1,1':3',1"]terphenyl-4'-yloxy]-3-phenyl-propionic acid], the IC50 amounted to 52 nM.

For the molecule `O=C(O)[C@H](CCc1ccccc1)Oc1ccc(-c2ccc(-c3c(Cc4ccccc4)oc4ccccc34)cc2)cc1` [Example 47, (2S)-2-[4'-(2-benzyl-benzofuran-3-yl)-biphenyl-4-yloxy]-4-phenyl-butyric acid], the IC50 worked out at 225 nM. As for `O=C(O)[C@H](Cc1ccccc1)Oc1c(Br)cc(-c2ccc(-c3c(Cc4ccccc4)oc4ccccc34)cc2)cc1Br` [Example 49, (2S)-2-[4'-(2-benzyl-benzofuran-3-yl)-3,5-dibromo-biphenyl-4-yloxy]-3-phenyl-propionic acid], the IC50 turned out to be 38 nM. In the case of `O=C(O)[C@H](Cc1ccccc1)Oc1ccc(-c2ccc(-c3c(Cc4ccccc4)oc4ccccc34)cc2)cc1Br` [Example 50, (2S)-2-[4'-(2-benzyl-benzofuran-3-yl)-3-bromo-biphenyl-4-yloxy]-3-phenyl-propionic acid], the IC50 is 56 nM. As for `CC(C)C[C@@H](Oc1c(Br)cc(-c2ccc(-c3c(Cc4ccccc4)oc4ccccc34)cc2)cc1Br)C(=O)O` [Example 51, (2R)-2-[4'-(2-benzyl-benzofuran-3-yl)-3,5-dibromo-biphenyl-4-yloxy]-4-methyl-pentanoic acid], the IC50 turned out to be 54 nM. Consider `CCCCC(Oc1c(Br)cc(-c2ccc(-c3c(Cc4ccccc4)oc4ccccc34)cc2)cc1Br)C(=O)O` (stereo not shown) [Example 52, 2-[4'-(2-benzyl-benzofuran-3-yl)-3,5-dibromo-biphenyl-4-yloxy]-hexanoic acid], for which the half-inhibitory concentration (IC50) stood at 52 nM. As to `CC[C@H](Oc1c(Br)cc(-c2ccc(-c3c(Cc4ccccc4)oc4ccccc34)cc2)cc1Br)C(=O)O` [Example 53, (2S)-2-[4'-(2-benzyl-benzofuran-3-yl)-3,5-dibromo-biphenyl-4-yloxy]-butyric acid], the IC50 was found to be 133 nM. For `CCCCCC[C@H](Oc1c(Br)cc(-c2ccc(-c3c(Cc4ccccc4)oc4ccccc34)cc2)cc1Br)C(=O)O` [Example 54, (2S)-2-[4'-(2-benzyl-benzofuran-3-yl)-3,5-dibromo-biphenyl-4-yloxy]-octanoic acid], the IC50 turned out to be 23 nM. In the case of `COc1ccc(-c2cc(-c3ccc(-c4c(Cc5ccccc5)sc5ccccc45)cc3)cc(Br)c2OCC(=O)O)cc1OC` [Example 56, [4-(2-benzyl-benzo[b]-thiophen-3-yl)-5'-bromo-3",4"-dimethoxy[1,1';3',1"-terphenyl]-4'-yloxy]-acetic acid], the IC50 was 47 nM.

As to `COc1cccc(-c2cc(-c3ccc(-c4c(Cc5ccccc5)sc5ccccc45)cc3)cc(Br)c2OCC(=O)O)c1` [Example 57], the IC50 was 28 nM. In the case of `COc1cccc(-c2cc(-c3ccc(-c4c(Cc5ccccc5)sc5ccccc45)cc3)cc(-c3cccc(OC)c3)c2OCC(=O)O)c1` [Example 58], the IC50 was found to be 25 nM. `COc1ccc(-c2cc(-c3ccc(-c4c(Cc5ccccc5)sc5ccccc45)cc3)ccc2OCC(=O)O)cc1` [Example 59]: the IC50 is 80 nM. Regarding `COc1ccc(-c2cc(-c3ccc(-c4c(Cc5ccccc5)sc5ccccc45)cc3)ccc2OCC(=O)O)cc1OC` [Example 60], the IC50 came out at 71 nM. Turning to `COc1cc(-c2cc(-c3ccc(-c4c(Cc5ccccc5)sc5ccccc45)cc3)ccc2OCC(=O)O)cc(OC)c1OC` [Example 61], the IC50 was 100 nM. On to `O=C(O)COc1ccc(-c2ccc(-c3c(Cc4ccccc4)sc4ccccc34)cc2)cc1-c1ccccc1` [Example 62], for which the IC50 came to 105 nM.

As to `O=C(O)c1ccc(COc2ccc(-c3ccc(-c4c(Cc5ccccc5)oc5ccccc45)cc3)cc2)cc1` [Example 63, 4-[4'-(2-benzyl-benzofuran-3-yl)-biphenyl-4-yloxymethyl]-benzoic acid], the IC50 stood at 369 nM. As to `Cc1sc(Cc2ccccc2)c(-c2ccc(-c3ccc(O[C@H](Cc4ccccc4)C(=O)O)cc3)cc2)c1C` [Example 64, (2R)-2-[4'-(2-Benzyl-4,5-dimethyl-thiophen-3-yl)-biphenyl-4-yloxy]-3-phenyl-propionic acid], the half-maximal inhibitory concentration (IC50) is 512 nM. On to `Cc1cc(-c2ccc(-c3c(Cc4ccccc4)oc4ccccc34)cc2)cc(C)c1O[C@H](Cc1ccccc1)C(=O)O` [Example 65, (2R)-2-[4'-(2-Benzyl-benzofuarn-3-yl)-3,5-dimethyl-biphenyl-4-yloxy]-3-phenyl-propionic acid], for which the half-inhibitory concentration (IC50) was found to be 74 nM. On the same count and under the same terms, with `O=C(O)C(Cc1ccccc1)Oc1ccc(-c2ccc(-c3c(C(O)c4ccccc4)oc4ccccc34)cc2)cc1[N+](=O)[O-]` [Example 67, (2R)-2-{4'-[2-(Hydroxy-phenyl-methyl)-benzofuarn-3-yl)-3-nitro-biphenyl-4-yloxy]-3-phenyl-propionic acid] the figure was 103 nM.
